Laboratory results published in the supplement of paper PMC13207355.

What was measured:
Conditions in all cases: exposure time: 72 h
E13 [1] = patient-derived glioblastoma stem cells of classical subtype; experiment: surviving fraction (nuclei count normalised to DMSO); higher = more cells surviving (less toxic)
E21 [2] = patient-derived glioblastoma stem cells of mesenchymal subtype; experiment: as above
E28 [3] = patient-derived glioblastoma stem cells of classical subtype; experiment: as above
E31 [4] = patient-derived glioblastoma stem cells of proneural subtype; experiment: as above
E34 [5] = patient-derived glioblastoma stem cells of proneural subtype; experiment: as above
E57 [6] = patient-derived glioblastoma stem cells of mesenchymal subtype; experiment: as above
FT3469 [7] = normal neural stem cell line; experiment: as above
E13 [8] = experiment: phenotypic distance (Euclidean, principal components) from DMSO controls (arbitrary units); higher = stronger morphological change
E21 [9] = experiment: as above
E28 [10] = experiment: as above
E31 [11] = experiment: as above
E34 [12] = experiment: as above
E57 [13] = experiment: as above
FT3469 [14] = experiment: as above
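For phenotypic distance (Euclidean, principal components) from DMSO controls in this document: cell Painting imaging in 384-well plates, CellProfiler features reduced to at least 20 principal components, Euclidean distance versus same-plate DMSO vehicle wells (0.1% v/v), median over six images per well.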
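For surviving fraction (nuclei count normalised to DMSO) in this document: nuclei counted by high-content imaging of Hoechst-stained cells in laminin-coated 384-well plates, relative to 0.1% DMSO vehicle wells, with staurosporine as cell-death control.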

O=[N+]([O-])c1ccc2c(c1)S(=O)(=O)C=C2 [Stattic]
Conditions	phenotypic distance	surviving fraction
E13 [1], 4.11523 nM	–	0.862
E13 [1], 12.34567901 nM	–	0.789
E13 [1], 37.037 nM	–	0.891
E13 [1], 111.1111111 nM	–	0.753
E13 [1], 333.333 nM	–	0.472
E13 [1], 1000 nM	–	0.0609
E13 [1], 3000 nM	–	0.0209
E13 [8], 4.11523 nM	0.979	–
E13 [8], 12.34567901 nM	0.957	–
E13 [8], 37.037 nM	0.849	–
E13 [8], 111.1111111 nM	1.68	–
E13 [8], 333.333 nM	3.33	–
E13 [8], 1000 nM	8.57	–
E13 [8], 3000 nM	12.1	–
E21 [2], 4.11523 nM	–	0.828
E21 [2], 12.34567901 nM	–	0.855
E21 [2], 37.037 nM	–	0.849
E21 [2], 111.1111111 nM	–	0.728
E21 [2], 333.333 nM	–	0.517
E21 [2], 1000 nM	–	0.0242
E21 [2], 3000 nM	–	0.00527
E21 [9], 4.11523 nM	1.03	–
E21 [9], 12.34567901 nM	1.19	–
E21 [9], 37.037 nM	0.697	–
E21 [9], 111.1111111 nM	1.45	–
E21 [9], 333.333 nM	2.92	–
E21 [9], 1000 nM	11.2	–
E21 [9], 3000 nM	10.4	–
E28 [3], 4.11523 nM	–	1.06
E28 [3], 12.34567901 nM	–	0.809
E28 [3], 37.037 nM	–	0.932
E28 [3], 111.1111111 nM	–	0.745
E28 [3], 333.333 nM	–	0.566
E28 [3], 1000 nM	–	0.0457
E28 [3], 3000 nM	–	0.00486
E28 [10], 4.11523 nM	0.371	–
E28 [10], 12.34567901 nM	0.758	–
E28 [10], 37.037 nM	0.541	–
E28 [10], 111.1111111 nM	0.984	–
E28 [10], 333.333 nM	1.97	–
E28 [10], 1000 nM	7.45	–
E28 [10], 3000 nM	19.2	–
E31 [4], 4.11523 nM	–	0.993
E31 [4], 12.34567901 nM	–	0.809
E31 [4], 37.037 nM	–	0.852
E31 [4], 111.1111111 nM	–	0.608
E31 [4], 333.333 nM	–	0.395
E31 [4], 1000 nM	–	0.00296
E31 [4], 3000 nM	–	0.00296
E31 [11], 4.11523 nM	0.51	–
E31 [11], 12.34567901 nM	0.69	–
E31 [11], 37.037 nM	0.645	–
E31 [11], 111.1111111 nM	1.51	–
E31 [11], 333.333 nM	3.02	–
E31 [11], 1000 nM	11.5	–
E31 [11], 3000 nM	12.4	–
E34 [5], 4.11523 nM	–	0.907
E34 [5], 12.34567901 nM	–	0.804
E34 [5], 37.037 nM	–	0.719
E34 [5], 111.1111111 nM	–	0.708
E34 [5], 333.333 nM	–	0.568
E34 [5], 1000 nM	–	0.223
E34 [5], 3000 nM	–	0.00905
E34 [12], 4.11523 nM	0.778	–
E34 [12], 12.34567901 nM	2.75	–
E34 [12], 37.037 nM	1.33	–
E34 [12], 111.1111111 nM	1.29	–
E34 [12], 333.333 nM	1.83	–
E34 [12], 1000 nM	6.7	–
E34 [12], 3000 nM	11.7	–
E57 [6], 4.11523 nM	–	0.876
E57 [6], 12.34567901 nM	–	0.843
E57 [6], 37.037 nM	–	0.926
E57 [6], 111.1111111 nM	–	0.848
E57 [6], 333.333 nM	–	0.631
E57 [6], 1000 nM	–	0.166
E57 [6], 3000 nM	–	0.0847
E57 [13], 4.11523 nM	1.16	–
E57 [13], 12.34567901 nM	1.21	–
E57 [13], 37.037 nM	0.778	–
E57 [13], 111.1111111 nM	1.69	–
E57 [13], 333.333 nM	2.66	–
E57 [13], 1000 nM	6.04	–
E57 [13], 3000 nM	6.85	–
FT3469 [7], 4.11523 nM	–	0.815
FT3469 [7], 12.34567901 nM	–	0.831
FT3469 [7], 37.037 nM	–	0.86
FT3469 [7], 111.1111111 nM	–	0.73
FT3469 [7], 333.333 nM	–	0.627
FT3469 [7], 1000 nM	–	0.263
FT3469 [7], 3000 nM	–	0.0263
FT3469 [14], 4.11523 nM	1.08	–
FT3469 [14], 12.34567901 nM	1.39	–
FT3469 [14], 37.037 nM	0.934	–
FT3469 [14], 111.1111111 nM	1.86	–
FT3469 [14], 333.333 nM	1.92	–
FT3469 [14], 1000 nM	8.18	–
FT3469 [14], 3000 nM	12.6	–

Clc1ccc(CSC(Cn2ccnc2)c2ccc(Cl)cc2Cl)cc1 (stereo unspecified) [Sulconazole nitrate]
Conditions	phenotypic distance	surviving fraction
E13 [1], 4.1 nM	–	0.897
E13 [1], 12.3 nM	–	0.833
E13 [1], 37 nM	–	0.964
E13 [1], 111.1 nM	–	0.887
E13 [1], 333.3 nM	–	0.841
E13 [1], 1000 nM	–	0.82
E13 [1], 3000 nM	–	0.799
E13 [8], 4.1 nM	0.507	–
E13 [8], 12.3 nM	0.659	–
E13 [8], 37 nM	0.68	–
E13 [8], 111.1 nM	0.822	–
E13 [8], 333.3 nM	1.02	–
E13 [8], 1000 nM	1.17	–
E13 [8], 3000 nM	0.957	–
E21 [2], 4.1 nM	–	0.956
E21 [2], 12.3 nM	–	1.01
E21 [2], 37 nM	–	1.03
E21 [2], 111.1 nM	–	0.956
E21 [2], 333.3 nM	–	0.962
E21 [2], 1000 nM	–	0.952
E21 [2], 3000 nM	–	0.859
E21 [9], 4.1 nM	0.971	–
E21 [9], 12.3 nM	4.31	–
E21 [9], 37 nM	0.531	–
E21 [9], 111.1 nM	0.857	–
E21 [9], 333.3 nM	1.11	–
E21 [9], 1000 nM	0.859	–
E21 [9], 3000 nM	1.68	–
E28 [3], 4.1 nM	–	0.969
E28 [3], 12.3 nM	–	0.978
E28 [3], 37 nM	–	0.902
E28 [3], 111.1 nM	–	0.886
E28 [3], 333.3 nM	–	0.956
E28 [3], 1000 nM	–	0.917
E28 [3], 3000 nM	–	0.839
E28 [10], 4.1 nM	0.745	–
E28 [10], 12.3 nM	0.557	–
E28 [10], 37 nM	0.545	–
E28 [10], 111.1 nM	0.553	–
E28 [10], 333.3 nM	0.469	–
E28 [10], 1000 nM	0.567	–
E28 [10], 3000 nM	0.697	–
E31 [4], 4.1 nM	–	0.929
E31 [4], 12.3 nM	–	0.922
E31 [4], 37 nM	–	1.01
E31 [4], 111.1 nM	–	1.02
E31 [4], 333.3 nM	–	0.984
E31 [4], 1000 nM	–	1.09
E31 [4], 3000 nM	–	1.17
E31 [11], 4.1 nM	0.532	–
E31 [11], 12.3 nM	0.425	–
E31 [11], 37 nM	0.596	–
E31 [11], 111.1 nM	0.731	–
E31 [11], 333.3 nM	1.14	–
E31 [11], 1000 nM	1.17	–
E31 [11], 3000 nM	1.4	–
E34 [5], 4.1 nM	–	0.824
E34 [5], 12.3 nM	–	1.02
E34 [5], 37 nM	–	0.954
E34 [5], 111.1 nM	–	0.957
E34 [5], 333.3 nM	–	0.909
E34 [5], 1000 nM	–	0.932
E34 [5], 3000 nM	–	0.766
E34 [12], 4.1 nM	1.17	–
E34 [12], 12.3 nM	0.4	–
E34 [12], 37 nM	0.413	–
E34 [12], 111.1 nM	0.586	–
E34 [12], 333.3 nM	0.864	–
E34 [12], 1000 nM	0.895	–
E34 [12], 3000 nM	1.02	–
E57 [6], 4.1 nM	–	0.975
E57 [6], 12.3 nM	–	0.945
E57 [6], 37 nM	–	0.995
E57 [6], 111.1 nM	–	0.972
E57 [6], 333.3 nM	–	1.07
E57 [6], 1000 nM	–	1.03
E57 [6], 3000 nM	–	0.934
E57 [13], 4.1 nM	0.709	–
E57 [13], 12.3 nM	0.952	–
E57 [13], 37 nM	0.398	–
E57 [13], 111.1 nM	0.55	–
E57 [13], 333.3 nM	0.671	–
E57 [13], 1000 nM	0.779	–
E57 [13], 3000 nM	1.99	–
FT3469 [7], 4.1 nM	–	0.831
FT3469 [7], 12.3 nM	–	1.03
FT3469 [7], 37 nM	–	0.945
FT3469 [7], 111.1 nM	–	0.801
FT3469 [7], 333.3 nM	–	0.934
FT3469 [7], 1000 nM	–	0.869
FT3469 [7], 3000 nM	–	0.734
FT3469 [14], 4.1 nM	0.821	–
FT3469 [14], 12.3 nM	0.617	–
FT3469 [14], 37 nM	0.893	–
FT3469 [14], 111.1 nM	0.999	–
FT3469 [14], 333.3 nM	1.06	–
FT3469 [14], 1000 nM	0.92	–
FT3469 [14], 3000 nM	1.39	–
